Assay results reported in patent US4914189A, “Synthetic GHRH analogs” (The Adminstrators of the Tulane Educational Fund, priority 1987, dated 1990).
Several values for one entry are separate records, joined by “and”; a condition that tells them apart may be missing. Equal values may be shown once.

Columns and labels:
release of pituitary GH = experiment: In vivo release of pituitary GH after one single i.v. injection in female rats; set-up: species or system rat; conditions: for Relative Potency (based on the effect of hpGHRH at the actual time) / Responses in plasma GH in ng GH/ml: 1.0 ug/(female) rat i.v.; for Absolute Potency (based on the average value of the four samples at -1 min.): average GH level at -1 min. 63.5 ng GH/ml plasma
Description: Adult female rats were used and were anesthetized with pentobarbital (6 mg/100 g, b.w.), injected i/p. 20 minutes after the injection of pentobarbital; blood samples were taken from the jugular vein (pretreated level) and immediately thereafter hpGH-RH^1-29 (as a control) or GH-RH^1-29 analogs were injected i.v. Blood samples were taken from the jugular vein 5, 15, 60 minutes after the injection. The blood samples were centrifuged, plasma was removed and the GH level was measured by RIA.
In vivo Effects of synthetic GHRH analogs on the release
of pituitary GH following one single i.v. injection of 1.0

[1] = system: superfused pituitary cell system; experiment: In vitro GH release, superfused pituitary cell system; format: cell-based, rat
Description: The compounds of the present invention were tested both in vitro in rat cell culture and in vivo in rats to determine GHRH activity. The protocols are as follows:
Twenty-four adult male or female Sprague-Dawley strain rats were decapitated for each experiment. After posterior lobes were removed, the anterior pituitaries were cut into small pieces and incubated in a Dubnoff incubator for 45 minutes at 37° C. in 10 ml. of oxygenated Medium 199 (GIBCO) containing 0.5% collagenase (Sigma Type 1), 0.25% bovine serum albumin (BSA) (Sigma RIA grade), and 5 μg./ml. Gentamicin Sulphate (Sigma). After this incubation, there were no apparent changes in the appearance of the tissue. However, the fragments could be easily dipsersed into single cells by repeated suction and expulsion from a Gilson Pipetman. After 30 to 60 Pipetman operations, the tissue fell apart; a second collagenase incubation was not usually necessary. The cell suspension was centrifuged at room temperature for 10 minutes at […]. The cell pellet was then resuspended in 1.0 ml. of medium. A small aliquot was diluted for counting the cells, and the rest or one suspension was divided into 2 equal volumes. Each volume (containing about 5× 10^6 cells, usually between 3.5 and 7.0×10^6) was mixed with 0.5 ml. Sephadex G-15 which had been equilibrated with previously oxygenated medium. The mixture of pituitary cells and Sephadex was transferred into 2 chambers of the superfusion apparatus and perfused with the medium. […]
ACTH radioimmunoassays were performed on 100 μl aliquots of undiluted superfusion medium essentially as described elsewhere (14); however, the separation of bound and free ACTH was accomplished by a polyethylene glycol facilitated second antibody method. Rat GH was measured in aliquots of undiluted or diluted superfusates to determine either basal or stimulated secretion. […]

release of GH = experiment: In vivo release of GH in male testosterone primed rats, 4-point assay method; set-up: species or system rat; conditions: i.v., individual values
Description: In vivo effect of synthetic GHRH analogs on the release of
GH in male testosterone primed rats. Results were
calculated by the 4-point assay method.
Doses injected are in μg/100 g. b.w., i.v.

Q: With “GH-RH^1-29: standard/control: fragment of the first 29 residues of human growth hormone releasing factor, amide” as the substance, how does the “Relative Potency (based on the effect of hpGHRH at the actual time)” value (from here on “Relative Potency”) (release of pituitary GH; time +5 min) read?
A: 100%

Q: And the “Responses in plasma GH in ng GH/ml” value (release of pituitary GH; time +5 min)?
A: 248 ng/mL

Q: What about the “Absolute Potency (based on the average value of the four samples at -1 min.)” value (shortened to “Absolute Potency”) (release of pituitary GH; time +5 min) of the same substance?
A: 390%

Q: What about the “Relative Potency” value (release of pituitary GH; time +15 min) of the same substance?
A: 100%

Q: What about the “Responses in plasma GH in ng GH/ml” value (release of pituitary GH; time +15 min) of the same substance?
A: 137 ng/mL

Q: And the “Absolute Potency” value (release of pituitary GH; time +15 min)?
A: 215%

Q: What about the “Relative Potency” value (release of pituitary GH; time +60 min) of the same substance?
A: 100%

Q: And the “Responses in plasma GH in ng GH/ml” value (release of pituitary GH; time +60 min)?
A: 29 ng/mL

Q: What about the “Absolute Potency” value (release of pituitary GH; time +60 min) of the same substance?
A: 45%

Q: What about the “Relative Potency” value (release of pituitary GH; time -1 min (pretreated level)) of the same substance?
A: 100%

Q: And the “Responses in plasma GH in ng GH/ml” value (release of pituitary GH; time -1 min (pretreated level))?
A: 66 ng/mL

Q: And the “Absolute Potency” value (release of pituitary GH; time -1 min (pretreated level))?
A: 103%

Q: What about the “Released GH Level Average” value ([1]; peptides administered for 3 minutes at 10M^-9 Concentration) of the same substance?
A: 40.00 ng/mL

Q: And the “Released GH Level” value ([1]; peptides administered for 3 minutes at 10M^-9 Concentration, individual values)?
A: 62.50 ng/mL and 42.50 ng/mL and 20.50 ng/mL and 34.50 ng/mL

Q: What about the Potency % ([1]; relative to GH-RH^1-29 standard, 3 minutes at 10M^-9 Concentration) of the same substance?
A: 100%

Q: And the “plasma Gh level” value (release of GH; 5 minutes after injection, dose 0.05 μg/100 g. b.w.)?
A: 160 ng·mL and 540 ng·mL and 208 ng·mL and 191 ng·mL and 450 ng·mL and 286 ng·mL and 397 ng·mL

Q: What about the “plasma Gh level” value (release of GH; 5 minutes after injection, dose 0.2 μg/100 g. b.w.) of the same substance?
A: 370 ng·mL and 620 ng·mL and 540 ng·mL and 610 ng·mL and 870 ng·mL and 410 ng·mL and 560 ng·mL

Q: What about the “plasma Gh level” value (release of GH; 15 minutes after injection, dose 0.05 μg/100 g. b.w.) of the same substance?
A: 65 ng·mL and 241 ng·mL and 97 ng·mL and 70 ng·mL and 161 ng·mL and 145 ng·mL and 149 ng·mL

Q: What about the “plasma Gh level” value (release of GH; 15 minutes after injection, dose 0.2 μg/100 g. b.w.) of the same substance?
A: 112 ng·mL and 280 ng·mL and 199 ng·mL and 261 ng·mL and 510 ng·mL and 161 ng·mL and 207 ng·mL
